Test results as given in ChEMBL document CHEMBL1141900, “Synthesis and antibacterial activity of C2-fluoro, C6-carbamate ketolides, and their C9-oximes” (2005).
In brackets after ≈: the same amount, converted by molar mass.

Experiments:
Format in all cases: functional
Haemophilus influenzae = assay: Minimum inhibitory concentration of the compound against Haemophilus influenzae OC4882 was determined
Streptococcus pneumoniae [1] = assay: Minimum inhibitory concentration of the compound against 3 […] Streptococcus pneumoniae OC4421 with an mef(A) efflux-mediated resistance was determined
Streptococcus pneumoniae [2] = assay: Minimum inhibitory concentration of the compound against erythromycin-susceptible Streptococcus pneumoniae was determined
Streptococcus pneumoniae [3] = assay: Minimum inhibitory concentration of the compound against 3 […] Streptococcus pneumoniae OC4051 with an erm(B)-ribosomal methylase-mediated resistance was determined
Staphylococcus aureus = assay: Minimum inhibitory concentration of the compound against erythromycin-susceptible Staphylococcus aureus Smith OC4172 was determined
Enterococcus faecalis = assay: Minimum inhibitory concentration of the compound againstEnterococcus faecalis ATCC 51299 with an erm(B)-encoded ribosomal methylase was determined

| Compound | MIC (Haemophilus influenzae) | MIC (Streptococcus pneumoniae [1]) | MIC (Streptococcus pneumoniae [2]) | MIC (Streptococcus pneumoniae [3]) | MIC (Staphylococcus aureus) | MIC (Enterococcus faecalis) |
| --- | --- | --- | --- | --- | --- | --- |
| CC[C@H]1OC(=O)[C@@](C)(F)C(=O)[C@H](C)[C@@H](O[C@@H]2O[C@H](C)C[C@H](N(C)C)[C@H]2O)[C@](C)(OC(=O)NCc2cn(-c3ncccn3)cn2)C[C@@H](C)C(=O)[C@H](C)[C@H]2NC(=O)O[C@@]21C | 4 µg/mL (≈ 4.89 µM) | 0.5 µg/mL (≈ 0.611 µM) | 0.03 µg/mL (≈ 0.0367 µM) | 0.12 µg/mL (≈ 0.147 µM) | 0.25 µg/mL (≈ 0.306 µM) | > 16 µg/mL |
| CC[C@H]1OC(=O)[C@@](C)(F)C(=O)[C@H](C)[C@@H](O[C@@H]2O[C@H](C)C[C@H](N(C)C)[C@H]2O)[C@](C)(OC(=O)NC/C=C/c2ccc(-n3cccn3)cc2)C[C@@H](C)C(=O)[C@H](C)[C@H]2NC(=O)O[C@@]21C | 8 µg/mL (≈ 9.5 µM) | 0.5 µg/mL (≈ 0.594 µM) | 0.03 µg/mL (≈ 0.0356 µM) | 0.12 µg/mL (≈ 0.143 µM) | 0.25 µg/mL (≈ 0.297 µM) | 8 µg/mL (≈ 9.5 µM) |
| CC[C@H]1OC(=O)[C@@](C)(F)C(=O)[C@H](C)[C@@H](O[C@@H]2O[C@H](C)C[C@H](N(C)C)[C@H]2O)[C@](C)(OC(=O)NC/C=C/c2ccc(-n3cnnc3)cc2)C[C@@H](C)C(=O)[C@H](C)[C@H]2NC(=O)O[C@@]21C | 8 µg/mL (≈ 9.49 µM) | 0.5 µg/mL (≈ 0.593 µM) | 0.06 µg/mL (≈ 0.0712 µM) | 0.12 µg/mL (≈ 0.142 µM) | 0.5 µg/mL (≈ 0.593 µM) | > 16 µg/mL |
| CC[C@H]1OC(=O)[C@@](C)(F)C(=O)[C@H](C)[C@@H](O[C@@H]2O[C@H](C)C[C@H](N(C)C)[C@H]2O)[C@](C)(OC(=O)NC/C=C/c2ccc3ncccc3c2)C[C@@H](C)C(=O)[C@H](C)[C@H]2NC(=O)O[C@@]21C | 4 µg/mL (≈ 4.84 µM) | 0.06 µg/mL (≈ 0.0726 µM) | 0.06 µg/mL (≈ 0.0726 µM) | 0.06 µg/mL (≈ 0.0726 µM) | 0.25 µg/mL (≈ 0.302 µM) | 4 µg/mL (≈ 4.84 µM) |
| CC[C@H]1OC(=O)[C@@](C)(F)C(=O)[C@H](C)[C@@H](O[C@@H]2O[C@H](C)C[C@H](N(C)C)[C@H]2O)[C@](C)(OC(=O)NC/C=C/c2ccc(-c3cccnn3)cc2)C[C@@H](C)C(=O)[C@H](C)[C@H]2NC(=O)O[C@@]21C | 4 µg/mL (≈ 4.68 µM) | 0.12 µg/mL (≈ 0.141 µM) | 0.03 µg/mL (≈ 0.0351 µM) | 0.06 µg/mL (≈ 0.0703 µM) | 0.12 µg/mL (≈ 0.141 µM) | 4 µg/mL (≈ 4.68 µM) |
| CC[C@H]1OC(=O)[C@@](C)(F)C(=O)[C@H](C)[C@@H](O[C@@H]2O[C@H](C)C[C@H](N(C)C)[C@H]2O)[C@](C)(OC(N)=O)C[C@@H](C)C(=O)[C@H](C)[C@H]2NC(=O)O[C@@]21C | 8 µg/mL (≈ 12.1 µM) | 2 µg/mL (≈ 3.03 µM) | 0.12 µg/mL (≈ 0.182 µM) | > 16 µg/mL | 1 µg/mL (≈ 1.52 µM) | > 16 µg/mL |
| CC[C@H]1OC(=O)[C@@](C)(F)C(=O)[C@H](C)[C@@H](O[C@@H]2O[C@H](C)C[C@H](N(C)C)[C@H]2O)[C@](C)(OC(=O)NC/C=C/c2cccnc2)C[C@@H](C)/C(=N\O)[C@H](C)[C@H]2NC(=O)O[C@@]21C | 2 µg/mL (≈ 2.53 µM) | 0.5 µg/mL (≈ 0.631 µM) | 0.06 µg/mL (≈ 0.0758 µM) | 0.12 µg/mL (≈ 0.152 µM) | 0.5 µg/mL (≈ 0.631 µM) | > 16 µg/mL |
| CC[C@H]1OC(=O)[C@@](C)(F)C(=O)[C@H](C)[C@@H](O[C@@H]2O[C@H](C)C[C@H](N(C)C)[C@H]2O)[C@](C)(OC(=O)NC/C=C/c2ccc(-c3ccccn3)cc2)C[C@@H](C)C(=O)[C@H](C)[C@H]2NC(=O)O[C@@]21C | 4 µg/mL (≈ 4.69 µM) | 0.12 µg/mL (≈ 0.141 µM) | 0.06 µg/mL (≈ 0.0703 µM) | 0.06 µg/mL (≈ 0.0703 µM) | 0.25 µg/mL (≈ 0.293 µM) | 4 µg/mL (≈ 4.69 µM) |
| CC[C@H]1OC(=O)[C@H](C)C(=O)[C@H](C)[C@@H](O[C@@H]2O[C@H](C)C[C@H](N(C)C)[C@H]2O)[C@](C)(OC)C[C@@H](C)C(=O)[C@H](C)[C@H]2N(CCCCn3cnc(-c4cccnc4)c3)C(=O)O[C@]12C [TELITHROMYCIN] | 2 µg/mL (≈ 2.46 µM) | 0.12 µg/mL (≈ 0.148 µM) | ≤ 0.015 µg/mL | 0.06 µg/mL (≈ 0.0739 µM) | 0.12 µg/mL (≈ 0.148 µM) | 16 µg/mL (≈ 19.7 µM) |
| CC[C@H]1OC(=O)[C@@](C)(F)C(=O)[C@H](C)[C@@H](O[C@@H]2O[C@H](C)C[C@H](N(C)C)[C@H]2O)[C@](C)(OC(=O)NC/C=C/c2ccc(-c3cccnn3)cc2)C[C@@H](C)/C(=N\O)[C@H](C)[C@H]2NC(=O)O[C@@]21C | 2 µg/mL (≈ 2.3 µM) | 0.25 µg/mL (≈ 0.288 µM) | 0.03 µg/mL (≈ 0.0345 µM) | 0.06 µg/mL (≈ 0.069 µM) | 0.5 µg/mL (≈ 0.575 µM) | > 4 µg/mL |
| CC[C@H]1OC(=O)[C@H](C)[C@@H](O[C@H]2C[C@@](C)(OC)[C@@H](O)[C@H](C)O2)[C@H](C)[C@@H](O[C@@H]2O[C@H](C)C[C@H](N(C)C)[C@H]2O)[C@](C)(O)C[C@@H](C)C(=O)[C@H](C)[C@@H](O)[C@]1(C)O [ERYTHROMYCIN] | 8 µg/mL (≈ 10.9 µM) | 4 µg/mL (≈ 5.45 µM) | 0.06 µg/mL (≈ 0.0818 µM) | > 16 µg/mL | 0.5 µg/mL (≈ 0.681 µM) | > 16 µg/mL |
| CC[C@H]1OC(=O)[C@@](C)(F)C(=O)[C@H](C)[C@@H](O[C@@H]2O[C@H](C)C[C@H](N(C)C)[C@H]2O)[C@](C)(OC(=O)NC/C=C/c2ccc(-c3cnccn3)cc2)C[C@@H](C)C(=O)[C@H](C)[C@H]2NC(=O)O[C@@]21C | 4 µg/mL (≈ 4.68 µM) | 0.06 µg/mL (≈ 0.0703 µM) | 0.03 µg/mL (≈ 0.0351 µM) | 0.06 µg/mL (≈ 0.0703 µM) | 0.25 µg/mL (≈ 0.293 µM) | 4 µg/mL (≈ 4.68 µM) |
| CC[C@H]1OC(=O)[C@@](C)(F)C(=O)[C@H](C)[C@@H](O[C@@H]2O[C@H](C)C[C@H](N(C)C)[C@H]2O)[C@](C)(OC(=O)NC/C=C/c2ccccc2)C[C@@H](C)/C(=N\O)[C@H](C)[C@H]2NC(=O)O[C@@]21C | 2 µg/mL (≈ 2.53 µM) | 0.5 µg/mL (≈ 0.632 µM) | 0.03 µg/mL (≈ 0.0379 µM) | 0.12 µg/mL (≈ 0.152 µM) | 0.25 µg/mL (≈ 0.316 µM) | > 16 µg/mL |
| CC[C@H]1OC(=O)[C@@](C)(F)C(=O)[C@H](C)[C@@H](O[C@@H]2O[C@H](C)C[C@H](N(C)C)[C@H]2O)[C@](C)(OC(=O)NC/C=C/c2ccc(-c3ncccn3)o2)C[C@@H](C)C(=O)[C@H](C)[C@H]2NC(=O)O[C@@]21C | 16 µg/mL (≈ 19 µM) | 0.5 µg/mL (≈ 0.592 µM) | 0.06 µg/mL (≈ 0.0711 µM) | 0.12 µg/mL (≈ 0.142 µM) | 0.5 µg/mL (≈ 0.592 µM) | > 16 µg/mL |
| CC[C@H]1OC(=O)[C@@](C)(F)C(=O)[C@H](C)[C@@H](O[C@@H]2O[C@H](C)C[C@H](N(C)C)[C@H]2O)[C@](C)(OC(=O)NCCOCc2ccc(-c3ncccn3)cc2)C[C@@H](C)/C(=N\O)[C@H](C)[C@H]2NC(=O)O[C@@]21C | 8 µg/mL (≈ 9.02 µM) | 0.25 µg/mL (≈ 0.282 µM) | 0.06 µg/mL (≈ 0.0676 µM) | 0.06 µg/mL (≈ 0.0676 µM) | 0.5 µg/mL (≈ 0.564 µM) | 16 µg/mL (≈ 18 µM) |
| CC[C@H]1OC(=O)[C@@](C)(F)C(=O)[C@H](C)[C@@H](O[C@@H]2O[C@H](C)C[C@H](N(C)C)[C@H]2O)[C@](C)(OC(=O)NCCOCc2ccc(-c3ncccn3)cc2)C[C@@H](C)C(=O)[C@H](C)[C@H]2NC(=O)O[C@@]21C | 8 µg/mL (≈ 9.17 µM) | 0.12 µg/mL (≈ 0.138 µM) | 0.06 µg/mL (≈ 0.0688 µM) | 0.12 µg/mL (≈ 0.138 µM) | 0.25 µg/mL (≈ 0.287 µM) | > 16 µg/mL |
| CC[C@H]1OC(=O)[C@@](C)(F)C(=O)[C@H](C)[C@@H](O[C@@H]2O[C@H](C)C[C@H](N(C)C)[C@H]2O)[C@](C)(OC(=O)NC/C=C/c2cncc(-c3ccccn3)c2)C[C@@H](C)C(=O)[C@H](C)[C@H]2NC(=O)O[C@@]21C | 8 µg/mL (≈ 9.37 µM) | 0.12 µg/mL (≈ 0.141 µM) | 0.03 µg/mL (≈ 0.0351 µM) | 0.06 µg/mL (≈ 0.0703 µM) | 0.25 µg/mL (≈ 0.293 µM) | 4 µg/mL (≈ 4.68 µM) |
| CC[C@H]1OC(=O)[C@@](C)(F)C(=O)[C@H](C)[C@@H](O[C@@H]2O[C@H](C)C[C@H](N(C)C)[C@H]2O)[C@](C)(OC(=O)NC/C=C/c2cn(-c3ncccn3)cn2)C[C@@H](C)C(=O)[C@H](C)[C@H]2NC(=O)O[C@@]21C | 8 µg/mL (≈ 9.48 µM) | 0.25 µg/mL (≈ 0.296 µM) | 0.03 µg/mL (≈ 0.0355 µM) | 0.06 µg/mL (≈ 0.0711 µM) | 0.12 µg/mL (≈ 0.142 µM) | 8 µg/mL (≈ 9.48 µM) |
| CC[C@H]1OC(=O)[C@@](C)(F)C(=O)[C@H](C)[C@@H](O[C@@H]2O[C@H](C)C[C@H](N(C)C)[C@H]2O)[C@](C)(OC(=O)NC/C=C/c2ccc3ncccc3c2)C[C@@H](C)/C(=N\O)[C@H](C)[C@H]2NC(=O)O[C@@]21C | 2 µg/mL (≈ 2.38 µM) | 0.12 µg/mL (≈ 0.143 µM) | 0.03 µg/mL (≈ 0.0356 µM) | 0.03 µg/mL (≈ 0.0356 µM) | 0.25 µg/mL (≈ 0.297 µM) | 2 µg/mL (≈ 2.38 µM) |
| CC[C@H]1OC(=O)[C@@](C)(F)C(=O)[C@H](C)[C@@H](O[C@@H]2O[C@H](C)C[C@H](N(C)C)[C@H]2O)[C@](C)(OC(N)=O)C[C@@H](C)/C(=N\O)[C@H](C)[C@H]2NC(=O)O[C@@]21C | 4 µg/mL (≈ 5.93 µM) | 2 µg/mL (≈ 2.96 µM) | 0.12 µg/mL (≈ 0.178 µM) | 2 µg/mL (≈ 2.96 µM) | 1 µg/mL (≈ 1.48 µM) | > 16 µg/mL |
